Assay results: patent publication US20070049564A1 (Wyeth, priority 2005, published 2007)
Values after ≈ are worked out from the molar mass of the structure shown. Read-outs that look alike come from different tables or passages of the source.

What was measured:
[1] = tested on: E. coli GC 2235; experiment: MIC, broth microdilution; conditions: Escherichia coli
[2] = tested on: E. coli GC 2272; experiment: MIC, broth microdilution; conditions: Escherichia coli
[3] = tested on: E. coli GC 4559; experiment: MIC, broth microdilution; conditions: Escherichia coli
[4] = tested on: E. coli GC 4560; experiment: MIC, broth microdilution; conditions: Escherichia coli
[5] = tested on: E. coli GC 6465; experiment: MIC, broth microdilution; conditions: Escherichia coli
[6] = tested on: E. coli GC 1073; experiment: MIC, broth microdilution; conditions: Escherichia coli
[7] = tested on: S. typhimurium GC 2172; experiment: MIC, broth microdilution; conditions: Salmonella enterica, TYPHIMURIUM
[8] = tested on: S. aureus GC 1131; experiment: MIC, broth microdilution; conditions: Staphylococcus aureus
[9] = tested on: S. aureus GC 6467; experiment: MIC, broth microdilution; conditions: Staphylococcus aureus
[10] = tested on: S. aureus GC 1079; experiment: MIC, broth microdilution; conditions: Staphylococcus aureus
[11] = tested on: S. aureus GC 4536; experiment: MIC, broth microdilution; conditions: Staphylococcus aureus
[12] = tested on: S. epidermidis GC 4935; experiment: MIC, broth microdilution; conditions: Staphylococcus epidermidis
[13] = tested on: E. faecalis GC 4555; experiment: MIC, broth microdilution; conditions: Enterococcus faecalis
[14] = tested on: E. faecalis GC 2267; experiment: MIC, broth microdilution; conditions: Enterococcus faecalis
[15] = tested on: E. faecalis GC 2242; experiment: MIC, broth microdilution; conditions: Enterococcus faecalis
[16] = tested on: S. pneumoniae* GC 4465; experiment: MIC, broth microdilution; conditions: Streptococcus pneumoniae
[17] = tested on: S. pneumoniae+ GC 4465; experiment: MIC, broth microdilution; conditions: Streptococcus pneumoniae
[18] = tested on: S. agalactiae GC 4564; experiment: MIC, broth microdilution; conditions: Streptococcus agalactiae
[19] = tested on: c. albicans GC 3066; experiment: MIC, broth microdilution
[20] = tested on: Staph. aureus Smith; experiment: In vivo activity (oral, iv; ED50) against Staph. aureus Smith in mice
[21] = read-out: MINIMAL INHIBITORY CONCENTRATION MIC, pre-incubated in Mouse Serum
[22] = read-out: MINIMAL INHIBITORY CONCENTRATION MIC, pre-incubated in Water

- MIC ([1]; GC2235, read-out: MINIMAL INHIBITORY CONCENTRATION MIC, pre-incubated in Mouse Serum): 0.5 µg/mL (≈ 0.595 µM)
- MIC ([1]; GC2235, read-out: MINIMAL INHIBITORY CONCENTRATION MIC, pre-incubated in Water): > 64 µg/mL
- MIC ([2]; GC2272, read-out: MINIMAL INHIBITORY CONCENTRATION MIC, pre-incubated in Mouse Serum): 1 µg/mL (≈ 1.19 µM)
- MIC ([2]; GC2272, read-out: MINIMAL INHIBITORY CONCENTRATION MIC, pre-incubated in Water): > 64 µg/mL
- MIC ([3]; GC4559, read-out: MINIMAL INHIBITORY CONCENTRATION MIC, pre-incubated in Mouse Serum): 1 µg/mL (≈ 1.19 µM)
- MIC ([3]; GC4559, read-out: MINIMAL INHIBITORY CONCENTRATION MIC, pre-incubated in Water): > 64 µg/mL
- MIC ([4]; GC4560, read-out: MINIMAL INHIBITORY CONCENTRATION MIC, pre-incubated in Mouse Serum): 0.25 µg/mL (≈ 0.298 µM)
- MIC ([4]; GC4560, read-out: MINIMAL INHIBITORY CONCENTRATION MIC, pre-incubated in Water): > 64 µg/mL
- MIC ([5]; GC6465, read-out: MINIMAL INHIBITORY CONCENTRATION MIC, pre-incubated in Mouse Serum): 4 µg/mL (≈ 4.76 µM)
- MIC ([5]; GC6465, read-out: MINIMAL INHIBITORY CONCENTRATION MIC, pre-incubated in Water): > 64 µg/mL
- MIC ([6]; GC1073, read-out: MINIMAL INHIBITORY CONCENTRATION MIC, pre-incubated in Mouse Serum): 1 µg/mL (≈ 1.19 µM)
- MIC ([6]; GC1073, read-out: MINIMAL INHIBITORY CONCENTRATION MIC, pre-incubated in Water): > 64 µg/mL
- MIC [7, 21]: 4 µg/mL (≈ 4.76 µM)
- MIC [7, 22]: > 64 µg/mL
- MIC ([8]; GC1131, read-out: MINIMAL INHIBITORY CONCENTRATION MIC, pre-incubated in Mouse Serum): 1 µg/mL (≈ 1.19 µM)
- MIC ([8]; GC1131, read-out: MINIMAL INHIBITORY CONCENTRATION MIC, pre-incubated in Water): 64 µg/mL (≈ 76.2 µM)
- MIC ([9]; GC6467, read-out: MINIMAL INHIBITORY CONCENTRATION MIC, pre-incubated in Mouse Serum): 4 µg/mL (≈ 4.76 µM)
- MIC ([9]; GC6467, read-out: MINIMAL INHIBITORY CONCENTRATION MIC, pre-incubated in Water): > 64 µg/mL
- MIC ([10]; GC1079, read-out: MINIMAL INHIBITORY CONCENTRATION MIC, pre-incubated in Mouse Serum): 4 µg/mL (≈ 4.76 µM)
- MIC ([10]; GC1079, read-out: MINIMAL INHIBITORY CONCENTRATION MIC, pre-incubated in Water): > 64 µg/mL
- MIC ([11]; GC4536, read-out: MINIMAL INHIBITORY CONCENTRATION MIC, pre-incubated in Mouse Serum): 2 µg/mL (≈ 2.38 µM)
- MIC ([11]; GC4536, read-out: MINIMAL INHIBITORY CONCENTRATION MIC, pre-incubated in Water): 32 µg/mL (≈ 38.1 µM)
- MIC ([12]; GC4935, read-out: MINIMAL INHIBITORY CONCENTRATION MIC, pre-incubated in Mouse Serum): 2 µg/mL (≈ 2.38 µM)
- MIC ([12]; GC4935, read-out: MINIMAL INHIBITORY CONCENTRATION MIC, pre-incubated in Water): 64 µg/mL (≈ 76.2 µM)
- MIC ([13]; GC4555, read-out: MINIMAL INHIBITORY CONCENTRATION MIC, pre-incubated in Mouse Serum): 1 µg/mL (≈ 1.19 µM)
- MIC ([13]; GC4555, read-out: MINIMAL INHIBITORY CONCENTRATION MIC, pre-incubated in Water): 64 µg/mL (≈ 76.2 µM)
- MIC ([14]; GC2267, read-out: MINIMAL INHIBITORY CONCENTRATION MIC, pre-incubated in Mouse Serum): 2 µg/mL (≈ 2.38 µM)
- MIC ([14]; GC2267, read-out: MINIMAL INHIBITORY CONCENTRATION MIC, pre-incubated in Water): 64 µg/mL (≈ 76.2 µM)
- MIC ([15]; GC2242, read-out: MINIMAL INHIBITORY CONCENTRATION MIC, pre-incubated in Mouse Serum): 2 µg/mL (≈ 2.38 µM)
- MIC ([15]; GC2242, read-out: MINIMAL INHIBITORY CONCENTRATION MIC, pre-incubated in Water): 32 µg/mL (≈ 38.1 µM)
- MIC [16, 21]: 0.25 µg/mL (≈ 0.298 µM)
- MIC [16, 22]: 0.5 µg/mL (≈ 0.595 µM)
- MIC [17, 21]: 4 µg/mL (≈ 4.76 µM)
- MIC [17, 22]: 4 µg/mL (≈ 4.76 µM)
- MIC ([18]; GC4564, read-out: MINIMAL INHIBITORY CONCENTRATION MIC, pre-incubated in Mouse Serum): 0.5 µg/mL (≈ 0.595 µM)
- MIC ([18]; GC4564, read-out: MINIMAL INHIBITORY CONCENTRATION MIC, pre-incubated in Water): 8 µg/mL (≈ 9.52 µM)
- MIC ([19]; Candida albicans, GC3066, read-out: MINIMAL INHIBITORY CONCENTRATION MIC): > 64 µg/mL
- MINIMAL INHIBITORY CONCENTRATION MIC ([19]; pre-incubated in Water): >64 UG/ML
SMILES: CCCCN(CC(=O)Nc1cc(N(C)C)c2c(c1O)C(=O)C1=C(O)[C@]3(O)C(=O)C(C(N)=O)=C(O)[C@@H](N(C)C)[C@@H]3C[C@@H]1C2)C(=O)OCOC(=O)c1ccc(-c2ccccc2)cc1 [Example 21, ({[(2-{[(5aR,6aS,7S,10aS)-9-(aminocarbonyl)-4,7-bis(dimethylamino)-1,8,10a,11-tetrahydroxy-10,12-dioxo-5,5a,6,6a,7,10,10a,12-octahydrotetracen-2-yl]amino}-2-oxoethyl)(butyl)amino]carbonyl}oxy)methyl 1,1′-biphenyl-4-carboxylate]
- ED50 ([20]; Staphylococcus aureus, in Mus musculus, po, read-out: ED50 Staph Smith SOD): > 32 mg/kg
- ED50 ([20]; iv, read-out: ED50 Staph Smith SIV): 0.77 mg/kg
